Reference: patent US20260242350A1, “POLYCYCLIC THYROID HORMONE BETA RECEPTOR AGONIST AND USE THEREOF” (CASCADE PHARMACEUTICALS, INC., priority 2023, published 2026)

How the values were obtained:
[1] = target: T1, THRβ LBD (His-GST-dLBT-THRβLBD) (Homo sapiens, UniProt P10828); assay: THR-FRET (time-resolved fluorescence resonance energy transfer) agonist activity assay, THRβ; type: biochemical; conditions: for EC50: 24 h at room temperature; for Selectivity (THRα/THRβ): ratio of EC50 THRα/THRβ
T1 construct: made in house; host or cells: E. coli BL21 (DE3)
T1 sequence (P10828 217-461 limits assumed): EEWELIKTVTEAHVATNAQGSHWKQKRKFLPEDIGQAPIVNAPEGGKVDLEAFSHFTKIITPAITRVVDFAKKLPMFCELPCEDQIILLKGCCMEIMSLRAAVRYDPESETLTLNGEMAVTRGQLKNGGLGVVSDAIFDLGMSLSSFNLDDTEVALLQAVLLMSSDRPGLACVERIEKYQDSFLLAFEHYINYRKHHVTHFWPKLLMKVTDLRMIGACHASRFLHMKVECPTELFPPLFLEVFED
From the text: (§1) Experimental Example 1: Detection of Agonist Activities of Compounds Against THRα/β Based on Time-Resolved Fluorescence Resonance Energy Transfer (THR-FRET)
(§2) 1. Construction of THRα/β Overexpression Vectors
(§3) By visiting NCBI, the THRα/β LBD domain sequences were found. The pET21-His-GST-dLBT-THRα LBD and pET21-His-GST-dLBT-THRβLBD overexpression vectors were constructed by the fusion method, and sequenced to confirm the accuracy of the sequences.
(§4) 2. Prokaryotic Expression of Recombinant Proteins in E. coli
(§5) The THRα LBD and THRβLBD overexpression vectors confirmed by sequencing were transfected into E. coli cells BL21 (DE3), and spread on an ampicillin-resistant agar plate. Monoclones were picked out and amplified in an LB medium, and transferred into 1 L LB at a ratio of 1:100 for large-scale culture. When the OD value was at 0.8 to 1.2, 0.5 mM isopropyl-beta-D-thiogalactopyranoside (IPTG) was added, and induced overnight at 18° C. The bacteria were harvested, disrupted, and purified via the GST column and the molecular sieve to obtain two proteins His-GST-dLBT-THRα LBD and His-GST-dLBT-THRβLBD.
(§6) 3. Preparation of Compounds and Formulation of Reaction System
(§7) The proteins were taken out from a refrigerator at −80° C. The protein s with the GST-tagged THRα/p LBD domain and the Eu-labelled GST antibodies were thawed slowly on ice, and an assay buffer containing a final concentration of 5 mM dithiothreitol (DTT) was formulated.
(§8) 3.1 Preparation of Compounds
(§9) The starting concentration of the compound was 10 μM (in DMSO). The compound (100 μM in DMSO) was subjected to 3-fold isogradient dilution with DMSO to obtain a total of 11 isogradient concentrations. Subsequently, the above compounds at the isogradient concentration were further subjected to 50-fold dilution with an assay buffer containing 5 mM DTT.
(§10) 3.2 Formulation of THR-FRET Reaction System
(§11) The final concentrations of all components were calculated based on a system with a final volume of 20 µL per well. To […] of assay buffer containing 5 mM DTT, the GST-tagged THRα/β proteins, the SRC2 ([…]) polypeptide, XL665 (Cisobio, #610SAXLB), and the Eu-labeled GST antibody were added, and the final concentrations were 2 nM, 200 nM, 0.05 nM, and 7.6 nM respectively to formulate 18 μL of reaction mixture of the proteins, polypeptide, and antibody per well.
(§12) 18 μL of reaction mixture and 2 μL of diluted compound were added into an optiplate-384-well plate, and reacted at room temperature for 24 h.
(§13) The plate was read using an MD i3x multi-mode microplate reader with the excitation and emission wavelengths of 340 nm and 665 nm, respectively. The intensity of light at a wavelength of 616 nm generated by europium excited by 340 nm wavelength light from the MD i3x multi-mode microplate reader was used as the background. According to the different activation degrees of different compounds against THRα and THRβ, the intensity of the emission light at a wavelength of 665 nm generated by exciting XL665 with the exciting light at a wavelength of 616 nm was varied. The intensity ratio between these two light wavelengths (665 nm, 616 nm) was used as the activation activity of the compound against THRα or THRβ, and was normalized against the ratio in the vehicle DMSO group. The dose-response curve was fitted with four parameters using the GraphPad Prism 6.0 software, and the EC50 value was calculated.

[2] = target: T2, THRβ (pGAL4-THRβ-LBD) (Homo sapiens, UniProt P10828); assay: Reporter gene (Dual-Glo luciferase) agonist activity assay in HEK293T cells, THRβ; type: cell-based; conditions: ratio of EC50 THRα/THRβ
T2 construct: expressed in transfected cells; host or cells: HEK293T
T2 sequence (P10828 217-461): T1 sequence (P10828 217-461 limits assumed)
From the text: Experimental Example 2: Detection of Agonist Activities of Compounds Against THRα and THRβ Based on Reporter Gene Activity Assay Method
1.1 Construction and Preparation of Plasmids pGAL4-THR-LBD and pG5-Luc
The pGAL4-THRα-LBD and pGAL4-THRβ-LBD plasmids used in the reporter gene assay system were constructed by a conventional molecular cloning method comprising the following main steps: the cDNA sequences of THRα (NM_003250) and THRβ(NM_000461) corresponding to the amino acid sequences of THRα (163-407AA) and THRβ(217-461AA) were inserted into the BamHI and NotI enzyme digestion sites of the pGAL4 vector by the PCR technique respectively to obtain the pGAL4-THRα-LBD and pGAL4-THRβ-LBD plasmids; the pG5-Luc (#E249A) and pRL-TK (#E2241) plasmids were purchased from Promega; the plasmids were transfected into the E. coli DH5a by the CaCl2 method, and after further culture and amplification, the plasmids were purified by Plasmid Extraction Kits (TIANGEN, #D107) to obtain the corresponding plasmid DNAs.
1.2 Co-Transfection of Plasmids into HEK293T Cells and Treatment with Compounds
The HEK293T cells were inoculated into a 96-well plate at a density of 1×10^4/well the day before plasmid transfection. Cell transfection was conducted according to the instructions of the transfection reagent FuGENE® HD (Promega, #E2311). The main steps were as follows: taking one well as an example here, the plasmids pGAL4-THRα-LBD or pGAL4-THRβ-LBD, pG5-Luc, and pRL-TK were added in the proportions of 20 ng, 50 ng, and 5 ng to 10 μL of Opti-MEM™ I medium (Gibco, #11058021) and mixed well; subsequently, 0.25 μL of FuGENE® HD was added, mixed well, and then left at room temperature for 5 min; afterwards, […] was added to the cell wells containing 100 μL of culture medium. After cell co-transfection for 6 h, the compound was diluted in a 3-fold gradient with dimethyl sulfoxide at the highest concentration of 1 μM. The compound was added to the cell culture medium at a total of 10 concentrations for treatment for 24 h. There were a total of two duplicate wells for each concentration. Triiodothyronine (T3) was used as the positive control.
1.3 Dual-Glo Luciferase Assay
After the cells were treated with the compound for 24 h, the cells were assayed according to the instructions of Dual-Glo® Luciferase Assay System (Promega, #E2940). The main steps were as follows: 50 μL of culture medium was aspirated from each well and discarded, and then 50 μL of Dual-Glo® Luciferase reagent was added and oscillated at room temperature for 10 min; 80 μL of lysis reaction solution was measured into a white opaque optiPlate-96-well plate, and the luminescence signal value (Firefly-Luc) of the Firefly luciferase was detected using an MD i3x multi-mode microplate reader; 40 μL of Dual-Glo® Stop & Glo® reagent was then added, and oscillated at room temperature for 10 min; the luminescence signal value (Renilla-Luc) of the Renilla luciferase was then detected using an MD i3x multi-mode microplate reader. The Firefly-Luc/Renilla-Luc ratio was used as the activation activity of the compound against THR, and was normalized against the ratio in the vehicle DMSO group; the dose-response curve was fitted with four parameters using the GraphPad Prism6.0 software, and the EC50 value was calculated.

[3] = target: T3, THRα LBD (His-GST-dLBT-THRα LBD) (Homo sapiens, UniProt P10827); assay: THR-FRET (time-resolved fluorescence resonance energy transfer) agonist activity assay, THRα; type: biochemical; conditions: 24 h at room temperature
T3 construct: made in house; host or cells: E. coli BL21 (DE3)
T3 sequence (P10827 163-407 isoform P10827-2): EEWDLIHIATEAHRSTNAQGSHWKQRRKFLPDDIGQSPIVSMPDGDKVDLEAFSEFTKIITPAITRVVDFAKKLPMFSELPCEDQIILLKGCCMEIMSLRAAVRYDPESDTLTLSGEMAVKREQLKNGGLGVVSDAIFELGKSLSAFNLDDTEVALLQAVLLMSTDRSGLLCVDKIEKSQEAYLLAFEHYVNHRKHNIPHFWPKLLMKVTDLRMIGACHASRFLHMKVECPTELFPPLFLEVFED
From the text: as §1, §2, §3, §4, §5, §6, §7, §8, §9, §10, §11, §12, §13

O=c1cnn(-c2cc(Cl)c(Cn3ccc(=O)c4ccccc43)c(Cl)c2)c(=O)[nH]1 [Compound 1]
EC50 [1]: 100 to 1000 nM
Selectivity (THRα/THRβ) [1]: †† (10 > THRα/β > 1)
Selectivity (THRα/THRβ) [2]: † (5 ≥ THRα/β)
EC50 [3]: 1000 to 10000 nM

O=c1cnn(-c2cc(Br)c(Cn3ccc(=O)c4ccccc43)c(Br)c2)c(=O)[nH]1 [Compound 2]
EC50 [1]: < 50 nM
Selectivity (THRα/THRβ) [1]: †† (10 > THRα/β > 1)
Selectivity (THRα/THRβ) [2]: † (5 ≥ THRα/β)
EC50 [3]: 100 to 1000 nM

O=c1cnn(-c2cc(Cl)c(Cn3ccc(=O)c4ccccc43)c(Br)c2)c(=O)[nH]1 [Compound 3]
EC50 [1]: 100 to 1000 nM
Selectivity (THRα/THRβ) [1]: †† (10 > THRα/β > 1)
Selectivity (THRα/THRβ) [2]: † (5 ≥ THRα/β)
EC50 [3]: 100 to 1000 nM

O=c1cnn(-c2cc(Cl)c(Cn3ccc(=O)c4cc(F)ccc43)c(Cl)c2)c(=O)[nH]1 [Compound 5]
Selectivity (THRα/THRβ) [2]: † (5 ≥ THRα/β)

O=c1cnn(-c2cc(Cl)c(Cn3ccc(=O)c4cc(Cl)ccc43)c(Cl)c2)c(=O)[nH]1 [Compound 6]
Selectivity (THRα/THRβ) [2]: † (5 ≥ THRα/β)

O=c1cnn(-c2cc(Cl)c(Cn3ccc(=O)c4cc(Br)ccc43)c(Cl)c2)c(=O)[nH]1 [Compound 7]
Selectivity (THRα/THRβ) [2]: † (5 ≥ THRα/β)

O=c1cnn(-c2cc(Cl)c(Cn3ccc(=O)c4cc(OC(F)(F)F)ccc43)c(Cl)c2)c(=O)[nH]1 [Compound 8]
Selectivity (THRα/THRβ) [2]: † (5 ≥ THRα/β)

O=c1cnn(-c2cc(Cl)c(Cn3ccc(=O)c4ccc(Cl)cc43)c(Cl)c2)c(=O)[nH]1 [Compound 12]
Selectivity (THRα/THRβ) [2]: † (5 ≥ THRα/β)

O=c1cnn(-c2cc(Cl)c(Cn3ccc(=O)c4c(Cl)cccc43)c(Cl)c2)c(=O)[nH]1 [Compound 13]
EC50 [1]: 100 to 1000 nM
Selectivity (THRα/THRβ) [1]: †† (10 > THRα/β > 1)
Selectivity (THRα/THRβ) [2]: † (5 ≥ THRα/β)
EC50 [3]: 1000 to 10000 nM

CCOC(=O)c1cn(Cc2c(Cl)cc(-n3ncc(=O)[nH]c3=O)cc2Cl)c2ccccc2c1=O [Compound 21]
Selectivity (THRα/THRβ) [2]: † (5 ≥ THRα/β)

COC(=O)c1cc2c(=O)ccn(Cc3c(Cl)cc(-n4ncc(=O)[nH]c4=O)cc3Cl)c2cc1OC [Compound 27]
Selectivity (THRα/THRβ) [2]: † (5 ≥ THRα/β)
